Key:
[1] = system: DCX45(pML82)-1B (disrupted cytochrome P450 reductase gene); test: disk sensitivity on YEPD of LEU+ spores / strain DCX45(pML82)-1B (Example 1); details: for sensitivity of LEU+ cultures compared with leu− cultures: spores plated on YEPD, disks containing the inhibitors
[2] = system: erg6 mutants; details: cited from earlier work
[3] = system: Saccharomyces cerevisiae strain DCX45(pML82)-1B (disrupted cytochrome P450 reductase gene) versus strain STX429-2A (erg6); type: cell-based; details: 20 μg per disk; YEPD agar, 30° C., two days; differential of approximately 8 mm or more scored as active
Description: Liquid yeast extract, peptone and dextrose (YEPD) media is first prepared by mixing the following ingredients obtained from Difco
and autoclaving at 20 lbs for 15 min. Solidified YEPD media is prepared using the above ingredients, except that
(§1) Overnight cultures of S. cerevisiae strain DCX45-(pML82)-1B from Example 1 above and strain STX429-2A obtained from the Yeast Genetics Stock Center are grown in liquid YEPD media shaken at 30° C. to an OD600 of ˜5 or greater.
(§2) Test media are prepared by combining separately 0.5 parts STX429-2A inoculum to 100 parts of warm YEPD agar media and 2 parts of DCX45(pML82)-1B to 100 parts of warm YEPD agar media. Plates for each culture are poured. Test samples are prepared on disks in duplicate, and each is placed on a STX429-2A plate and a DCX45(pML82)-1B plate, testing 20 μg of test sample per disk. A ¼″ disk containing 10 μg of dinaconazole is used as a positive control on each plate.
(§3) The plates are incubated at 30° C. for two days and then examined to compare activity on the two strains. Actives produce a larger zone on the DCX45(pML82)-1B plate than on the STX429-2A plate. Only compounds producing a differential of approximately 8 mm or more are scored as active.

[4] = system: STX429-2A (erg 6); details: strain STX429-2A (erg 6)
Description: as §2
The plates are incubated at 30° C. for two days and then examined to compare activity on the two strains. Actives produce a larger zone on the DCX45(pML82)-1B plate than on the STX429-2A plate.

[5] = system: DCX45 (pML82)-1B; test: imidazole sensitivity (limit of detection) on cytochrome P450 reductase disrupted strain; type: cell-based, Saccharomyces cerevisiae
Description: as §1, §2, §3
The imidazole sensitivity of these compounds in the strains is as follows: […]

[6] = system: cytochrome P450 reductase yeast mutants (TSY11-6C, TSY21); details: cited from earlier work

Compound | activity in the cytochrome P450 reductase screen (larger zone on the DCX45(pML82)-1B plate than on the STX429-2A plate) [3] | Limit of Detection [5] | sensitivity of LEU+ cultures compared with leu− cultures [1] | further results
C/C=C/C/C=C/CCC(=O)[C@H]1O[C@H]1C(N)=O [cerulenin] | – | – | – | sensitivity of strain DCX45(pML82)-1B [1]: increased sensitivity
C[C@@H]1C[C@@H]([C@H](O)CC2CC(=O)NC(=O)C2)C(=O)[C@@H](C)C1 [cycloheximide] | – | – | – | sensitivity or resistance of erg6 mutant strains [2]: hypersensitivity
CC(C)(C)C(O)/C(=C/c1ccc(Cl)cc1Cl)n1cncn1 (centres unmarked) [dinaconazole] | active | 2 ng | more sensitive | Limit of Detection [4]: 50 ng
Clc1ccc(COC(Cn2ccnc2)c2ccc(Cl)cc2Cl)cc1 (centres unmarked) [econazole] | active | 2 ng | more sensitive | Limit of Detection [4]: 50 ng
CN1C(=O)[C@]23CC4=CC=C[C@H](O)[C@H]4N2C(=O)[C@@]1(CO)SS3 [gliotoxin] | positive | – | – | –
CC(=O)N1CCN(c2ccc(OCC3COC(Cn4ccnc4)(c4ccc(Cl)cc4Cl)O3)cc2)CC1 (centres unmarked) [ketoconazole] | active | 5 ng | more sensitive | sensitivity of strains TSY11-6C and TSY21 ([6]; disrupted cytochrome P450 reductase genes): sensitive; increase in sensitivity of cytochrome P450 reductase yeast mutants ([6]; mutants lacking the cytochrome P450 reductase gene): 200 fold; sensitivity of strain DCX45(pML82)-1B [1]: supersensitivity
Clc1ccc(COC(Cn2ccnc2)c2ccc(Cl)cc2Cl)c(Cl)c1 (centres unmarked) [miconazole] | active | – | – | –
C[C@@H]1[C@H](O)[C@@H](C)/C=C/C=C/CC/C=C/C=C/C=C/C=C/C(O[C@H]2O[C@H](C)[C@@H](O)[C@H](N)[C@@H]2O)CC2O[C@](O)(CC(O)C(O)CCC(O)CC(O)CC(O)CC(=O)O[C@H]1C)CC(O)C2C(=O)O (some centres unmarked) [nystatin] | – | – | – | sensitivity or resistance of erg6 mutant strains [2]: resistance
mevinolin [lactonized mevinolin] | no response | – | – | –
